{
  "source": "paper PMC5628141",
  "about": "(Molecular cancer therapeutics, 2017)",
  "biological_target": "T1, androgen receptor DNA binding domain (AR-DBD) (Rattus norvegicus, UniProt P15207, C552A)",
  "T1 sequence (P15207 550-637 C552A)": "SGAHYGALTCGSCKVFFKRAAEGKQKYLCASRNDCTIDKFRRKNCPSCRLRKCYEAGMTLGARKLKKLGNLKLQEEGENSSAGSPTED",
  "assay": "isothermal titration calorimetry",
  "data": [
    {"compound": "Brc1cn(-c2csc(N3CCOCC3)n2)c(Br)n1", "note": "[VPC-14449, 4-(4-(2,4-bromo-1H-imidazol-1-yl)thiazol-2-yl)morpholine]", "values": [
      {"measurement": "Kd", "value": "~64", "unit": "µM"}
    ]}
  ]
}
